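How tested: cells in 96-well plates exposed to compound for 48 hours at five concentrations. Abbreviation: GI50, concentration required for 50% inhibition of growth.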 Activity calls are given as the source filed them. Cut-off read from the data, not from the text of the source: active = GI50 up to about 1.1 µM and inactive = higher.

Holding throughout (assay): inhibition of tumour cell growth, NCI panel, 48 h
Assay [1] deals with SN12C.
Assay [2] deals with 786-0.
Assay [3] relates to OVCAR-8.
In assay [4] the test system is U-251.
In assay [5] the test system is T47D.
Assay [6] concerns IGROV-1.
For assay [7], the system named is A549.
Assay [8] has as its system NCI-H460.
Assay [9] deals with MCF7.
In assay [10] the test system is SK-MEL-28.
The subject of assay [11] is SK-MEL-5.
Assay [12] relates to EKVX.
For assay [13], the system named is SF-268.
Assay [14] deals with K562.
The test system of assay [15] is KM12.
In assay [16] the test system is SW-620.
For assay [17], the system named is UO-31.
In assay [18] the test system is DU-145.
For assay [19], the system named is Hs-578T.
The test system of assay [20] is Malme-3M.

On to `Cc1ccc(/N=N/C(=N\c2ccc(Cl)cc2)c2ccc(N(CCC#N)CCC#N)cc2)cc1`, for which the GI50 in [1] was 40.9 µM (inactive); in assay [2], 52 µM (inactive); in assay [3], 63.8 µM (inactive); in assay [4] it was 25.2 µM (inactive); in [5], 12.5 µM (inactive); in [6], 30.3 µM (inactive). Besides, the GI50 in [7] was 29.6 µM (inactive); in [8], 18.1 µM (inactive); in [9], 21.6 µM (inactive); in assay [10] it was 85.5 µM (inactive); in [11] it was 2.63 µM (inactive); in [12], 22.9 µM (inactive). The GI50 in [13] is 48.1 µM (inactive); in assay [14], > 100 µM (inactive); in assay [15], 19.1 µM (inactive); in [16], 58.9 µM (inactive); in [17] it was 6.89 µM (inactive); in assay [18] it was 37.7 µM (inactive). Also, in assay [19], the GI50 is 33.7 µM (inactive).

As for `CCOC(=O)c1nc2ccccc2nc1Nc1cc(OC)c(OC)c(OC)c1`, the GI50 in assay [1], in assay [2], in [4], in assay [5], in [6] and in [7] was > 100 µM (inactive) throughout. Also, the GI50 in [8], in assay [20], in [9], in [10], in assay [11] and in assay [12] was > 100 µM (inactive) throughout. Besides, the GI50 in assay [13] was > 100 µM (inactive); in [14], > 100 µM (inactive); in [15] it was > 100 µM (inactive); in [17], > 100 µM (inactive); in assay [18] it was > 100 µM (inactive); in assay [19] it was 92.9 µM (inactive).

As to `COc1ccc(CNc2nc3cc(C(F)(F)F)ccc3nc2-c2ccccc2)cc1OC`, the GI50 in assay [1] is > 10 µM (inactive); in [2], 33.4 µM (inactive); in assay [3], 54.6 µM (inactive); in assay [5], 24.3 µM (inactive); in assay [6], 66.7 µM (inactive); in assay [7] it was 26.9 µM (inactive). Further, the GI50 in assay [8] is 19.5 µM (inactive); in assay [20], 45.6 µM (inactive); in assay [9], 16.1 µM (inactive); in [11] it was 17.9 µM (inactive); in [12], 18.7 µM (inactive); in assay [13] it was 62.8 µM (inactive). In addition, the GI50 is 26.1 µM (inactive) in assay [14]; 29.5 µM (inactive) in assay [15]; 18.5 µM (inactive) in [16]; 23.7 µM (inactive) in assay [17]; 87.5 µM (inactive) in assay [18]; 25.2 µM (inactive) in [19].

On to `CC1=C(\C=C/C(C)=C/C=C/C(C)=C/C=C/C=C(C)\C=C\C=C(C)/C=C/C2=C(C)CCCC2(C)C)C(C)(C)CCC1`, for which the GI50 in assay [1] was > 100 µM (inactive); in assay [2] it was > 100 µM (inactive); in assay [3], > 100 µM (inactive); in assay [4], 56.2 µM (inactive); in assay [5], 19.5 µM (inactive); in [6], > 100 µM (inactive). The GI50 in assay [7] is > 10 µM (inactive); in assay [8] it was > 100 µM (inactive); in assay [20] it was > 100 µM (inactive); in assay [9], 75.2 µM (inactive); in [10] it was 46.5 µM (inactive); in assay [11], > 100 µM (inactive). Also, the GI50 was > 100 µM (inactive) in assay [13]; > 100 µM (inactive) in assay [14]; 39.6 µM (inactive) in [15]; > 100 µM (inactive) in assay [16]; > 100 µM (inactive) in assay [17]; > 100 µM (inactive) in assay [18]. In assay [19], the GI50 was 88.9 µM (inactive).

For the compound `O=S(=O)(NC1CCCCC1)c1ccc2c(c1)OCCOCCOCCOCCO2`, the GI50 in assay [1], in assay [2], in assay [3], in [5], in [6] and in assay [7] was > 100 µM (inactive) throughout. Besides, the GI50 in assay [8], in [20], in assay [9], in assay [10], in assay [11] and in assay [12] was > 100 µM (inactive) in each case. Moreover, the GI50 in assay [13], in assay [14], in assay [15], in assay [16], in [17] and in [18] was > 100 µM (inactive) in each case. Also, the GI50 in assay [19] is > 100 µM (inactive).

For `COc1cc(S(=O)(=O)Nc2ccc(-c3csc(/N=C\c4ccccc4)n3)cc2)ccc1Cl`, the GI50 in [1] was > 100 µM (inactive); in assay [2], 81.3 µM (inactive); in assay [3] it was > 100 µM (inactive); in assay [5] it was 35.9 µM (inactive); in [6], > 100 µM (inactive); in assay [7] it was > 100 µM (inactive). The GI50 in [20] is > 100 µM (inactive); in assay [9], 20.5 µM (inactive); in assay [10], 33.7 µM (inactive); in [11], 52.7 µM (inactive); in assay [12], 30.3 µM (inactive); in assay [13], 32 µM (inactive). The GI50 in assay [14] is 32.2 µM (inactive); in [15], 36.4 µM (inactive); in assay [16] it was 33.5 µM (inactive); in assay [17], 74.3 µM (inactive); in assay [18] it was 85.1 µM (inactive); in [19], 53.3 µM (inactive).

Take `CCOc1cc(NC(C)=O)ccc1C(=O)NNS(=O)(=O)c1ccc(NC(C)=O)cc1`: the GI50 in assay [1] was 46.5 µM (inactive); in [2] it was 42.3 µM (inactive); in assay [3] it was 69.3 µM (inactive); in [5], > 100 µM (inactive); in [6], 43.9 µM (inactive); in [7] it was 72.8 µM (inactive). Also, the GI50 in assay [8] is 39.6 µM (inactive); in assay [20] it was 86.7 µM (inactive); in [9], 40.6 µM (inactive); in [10], 99.1 µM (inactive); in assay [11], 22.3 µM (inactive); in assay [12], 56 µM (inactive). Further, the GI50 in [13] was 88.7 µM (inactive); in assay [14] it was 38 µM (inactive); in assay [15] it was 41.5 µM (inactive); in assay [16], 39.2 µM (inactive); in assay [17], 62.4 µM (inactive); in [18], > 100 µM (inactive). The GI50 in [19] was 41.7 µM (inactive).

`C/C=C/CC(C(=O)OCC)(N(C)C(=O)OC(C)(C)C)S(=O)(=O)c1ccc(C)cc1` (configuration not stated): the GI50 in assay [1] is > 100 µM (inactive); in assay [2], > 100 µM (inactive); in [3], > 100 µM (inactive); in assay [4], 81.5 µM (inactive); in assay [5], > 100 µM (inactive); in [6], 68.7 µM (inactive). The GI50 was 85.9 µM (inactive) in [7]; > 100 µM (inactive) in assay [20]; 53.7 µM (inactive) in assay [9]; > 100 µM (inactive) in assay [10]; 88.7 µM (inactive) in assay [11]; > 100 µM (inactive) in assay [12]. Besides, the GI50 is > 100 µM (inactive) in assay [13]; 70.5 µM (inactive) in [14]; 48.2 µM (inactive) in [15]; 56.5 µM (inactive) in assay [16]; > 100 µM (inactive) in assay [17]; > 100 µM (inactive) in assay [18]. Further, in assay [19], the GI50 was > 100 µM (inactive).

For `CCOC(=O)C1C(c2ccc(OC)cc2)c2c(n[nH]c2O)CC1(C)O` (configuration not stated), the GI50 in assay [1], in assay [2], in [3], in assay [4], in assay [5] and in assay [6] was > 100 µM (inactive) each time. Further, the GI50 in assay [7], in [8], in assay [20], in assay [9], in assay [10] and in assay [11] was > 100 µM (inactive) in each case. The GI50 in assay [12], in assay [13], in assay [15], in assay [16], in [17] and in assay [18] was > 100 µM (inactive) each time. Also, the GI50 in [19] is > 100 µM (inactive).

As to `COc1cc2c(cc1OC)-c1[nH]c3ccc([N+](=O)[O-])cc3c1CC(=O)N2`, the GI50 in [1] was 2.37 µM (inactive); in assay [2], 2.35 µM (inactive); in [3] it was 2.82 µM (inactive); in [4], 3.32 µM (inactive); in assay [5], 7.28 µM (inactive); in assay [6], 2.39 µM (inactive). Besides, the GI50 was 2.46 µM (inactive) in assay [7]; 1.95 µM (inactive) in [8]; 3.59 µM (inactive) in [9]; 6.19 µM (inactive) in assay [10]; 1.58 µM (inactive) in assay [11]; 5.87 µM (inactive) in [12]. Besides, the GI50 is 0.881 µM (active) in [13]; 1.3 µM (inactive) in assay [14]; 0.867 µM (active) in assay [15]; 0.849 µM (active) in assay [16]; 2.36 µM (inactive) in assay [17]; 1.68 µM (inactive) in assay [18]. Besides, the GI50 in [19] was 0.2 µM (active).

The record behind these values is ChEMBL document CHEMBL1201862, “PubChem BioAssay data set” (2004).
